Key:
[1] = test system: MPM cell lines; assay: Combination drug screen with rTRAIL as anchor drug; format: cell-based, Human; conditions: otherwise resistant cells; delta AUC synergy metric
Experimental: FIG. 7A is a volcano plot showing drug-genome interactions when rTRAIL was used as an anchor drug in combination with the library of 94 single agent compounds. Synergy was described using delta AUC metric. FIGS. 7B & 7C are graphs showing the effect of rTRAIL on cell viability of MPM cells in the presence of LCL161. TRAIL resistant MPM cells were treated with either 0-1000 ng/ml of TRAIL alone or a combination of 5 μM LCL161 and 0-1000 ng/ml of TRAIL for 24 hours and cell death was quantified by Annexin V/DAPI assay. FIG. 7D is a graph showing the effect of rTRAIL on cell viability of cells in the presence of the IAP inhibitor, LCL161. BAP1-transduced or BAP1 C91A-transduced H226 cells were treated either with 0-1000 ng/ml of TRAIL alone or combination of 5 μM LCL161 and 0-1000 ng/ml of TRAIL for 24 hours and cell death was quantified by Annexin V/DAPI assay.
Manual “single dose” combination screening was undertaken using 96 well formats. Cells were plated on day 1 in previously optimized seeding densities in 180 μl if media. On day 2 20 μl of a 10× concentration of […] was added. Cells were then allowed to grow for 72 hrs or 6 days and fixed at the end of the assay. Drug wells were compared to DMSO treated control wells.
Single agent high throughput 5 point viability screening was undertaken in 384 well formats using robotic liquid handling with fixing with 4% paraformaldehyde and staining for viability with Syto60 nucleic acid dye (Invitrogen) (see below).
A binary event matrix was compiled for the cell lines in the mesothelioma screen by aggregating copy number and exome data and this was used as input classifiers for genomic correlation. Data from this therapeutic screen was then analysed using a Multivariate Analysis of Variance (MANOVA) to annotate the sensitizing effect of genotype on dose response.

[2] = test system: NCI-H226; assay: Annexin V/DAPI cell death assay, H226 parental and BAP1-transduced lines; format: cell-based, Human; conditions: 100 ng/ml, 24 hours; untransduced, BAP1-expressing and catalytically dead BAP1-expressing H226
Experimental: FIG. 5A is an immunoblot for BAP1 protein in BAP1 null mesothelioma lines following transfection with empty vector and BAP1 expression vector. […] FIG. 5C is a graph showing the effect of rTRAIL on cell viability of an untransduced H226 cell line, a BAP1 (transduced) cell line, and a H226 cell line with the NLS deleted.
Untransduced BAP1-negative H226 cells, BAP1-expressing and catalytically dead BAP1-expressing H226 cells were treated with 100 ng/ml of FASL, TRAIL and TNF-alpha for 24 hours and cell death was quantified by Annexin V/DAPI assay. *p<0.05 indicating significant difference between untransduced H226 cells H226 BAP1 expressing cells. NS no significant difference between untransduced H226 cells and BAP1 C91A transduced cells. #p<0.05 indicating significant difference between untransduced H226 cells and BAP1 C91A transduced cells.
Adherent mesothelioma cell lines were plated in a 96 well plate at approximately 10000 cells per well. Cells were plated and given 1 day to adhere at which time drug was added. After 48 hrs media, including floating cells, was collected from each well. The remaining adherent cells were washed with PBS and mobilised with 0.05% trypsin in EDTA. All cells were collected into tubes containing the previously removed media and pelleted by centrifugation (300 g, 5 minutes). Cells were then re-suspended in 1× Annexin V binding buffer with 10 μl/1 ml concentration of Annexin V-647 antibody (Invitrogen) and incubated for 15 minutes at room temperature. DAPI ([…]) was then added to each sample before flow cytometry analysis as below. Annexin V−/DAPI− cells were judged to be viable, AnnexinV+/DAPI− cells were considered to be undergoing apoptosis (early apoptotic phase), and Annexin V+/DAPI+ cells were considered late apoptotic or necrotic, and recorded as dead.

Molecule	effect on DRL-induced apoptosis in combination with rTRAIL [1]	sensitivity of H226 cells to cell death-inducing ligand, dependence on BAP1 catalytic domain [2]
CNC(=O)c1cc(Oc2ccc(NC(=O)Nc3ccc(Cl)c(C(F)(F)F)c3)cc2)ccn1 [sorafenib]	increase the efficacy of DRL-induced apoptosis	
COc1ccc(C(=O)CC2(O)C(=O)Nc3c(Cl)ccc(Cl)c32)cc1 (centres unmarked) [YK-4279]	increase the efficacy of DRL-induced apoptosis	
CN[C@@H](C)C(=O)N[C@H](C(=O)N1CCC[C@H]1c1nc(C(=O)c2ccc(F)cc2)cs1)C1CCCCC1 [LCL161]	increase the efficacy of DRL-induced apoptosis	
TNFα		regulates the sensitivity
FASL: cell death-inducing ligand, death receptor ligand (protein, UniProt P48023 130-281, looked up) Tumor necrosis factor ligand …: QIGHPSPPPEKKELRKVAHLTGKSNSRSMPLEWEDTYGIVLLSGVKYKKGGLVINETGLYFVYSKVYFRGQSCNNLPLSHKVYMRNSKYPQDLVMMEGKMMSYCTTGQMWARSSYLGAVFNLTSADHLYVNVSELSLVNFEESQTFFGLYKL		regulates the sensitivity
